Results: publication PMC8803428, “Pharmacokinetics of Ginsenoside Rb1, Rg3, Rk1, Rg5, F2, and Compound K from Red Ginseng Extract in Healthy Korean Volunteers” (Evidence-based Complementary and Alternative Medicine : eCAM, 2022)
Where two headings read alike, the source gives them in different places.

Columns and labels:
[1] = Pharmacokinetics of ginsenosides in plasma after a single oral dose of RG or BRG capsules in healthy Korean men (LC-MS/MS); format: in vivo, human; conditions: for AUC(0-t): read-out: AUC(0–t)
Excerpt: This study was designed as a randomized, open-label, single-dose, crossover study with washout every 1 week to evaluate the pharmacokinetics and safety of ginsenosides. Subjects were randomly assigned to either the RG or BRG group during the first period of the study (Figure 2). After 1 week of the washout period, other products that were not received in the first period were provided. All enrolled subjects were hospitalized at Bestian Clinical Trial Center on the day before taking RG or BRG. Subjects were provided regular meals, and additional food intake was restricted after the meal. The next day, the subjects who had maintained the fasting state for 10 h took the capsules corresponding to 5 g of RG and BRG orally. Water was restricted for 1 h before and after intake, and food intake was restricted for 4 h after administration. After 4 h, all subjects received a standardized meal. In addition, lying down or sleeping was prohibited for 8 h after oral administration. Blood samples (5 mL) were collected before dosing and at each time point (0, 0.5, 1, 2, 4, 6, 8, 10, 12, and 24 h) after dosing. All blood samples were collected in heparin-treated tubes. The blood samples were promptly centrifuged at 3,000 rpm for 10 min at 4°C, and the plasma samples obtained were stored in a deep freezer at −70 ± 10°C until assay.
All analyses were performed using an Agilent 1200 series HPLC system (Agilent) with a Luna Phenyl-Hexyl column (2.0 × 150 mm, 5 μm; Phenomenex, CA, USA). The mobile phase comprised water (solvent A) and acetonitrile (solvent B) containing 0.1% formic acid. The flow rate of the mobile phase was 0.25–0.35 mL/min. The initial condition of 70% solvent A was set to 5% solvent A over 15 min. The content of ginsenosides in human plasma was measured using an API 5500 mass spectrometer (AB Sciex, Foster City, CA, USA) capable of multiple reaction monitoring (MRM). The parent-daughter ion pairs monitored were 845.5 ⟶ 799.6 for Rg1, 1153.6 ⟶ 1107.5 for Rb1, 829.4 ⟶ 783.5 for Rg3, and F2, 811.4 ⟶ 161.0 for Rg5 and Rk1, 667.4 ⟶ 161.0 for CK, and 825.4 ⟶ 779.3 for digoxin as an IS in the negative ion mode. Nitrogen gas was used in the nebulizer and the collision cell. The ion spray voltage was set to 5500 V.
Standard plasma samples were prepared such that each ginsenoside was in the concentration range of 0.5–100 ng/mL; 10 μL of a standard mixture of six kinds of ginsenosides (Rg1, Rb1, Rg5 + Rk1, F2, and CK) was added to 90 μL of blank human plasma. Rg3 was prepared in the concentration range of 0.2–40 ng/mL. Standard plasma samples (100 μL) were added to 200 μL of methanol containing 50 ng/mL digoxin, an IS. These were mixed for 1 min and then centrifuged at 12,000 rpm for 5 min at 4°C. Then, 100 μL of the supernatant was transferred to an LC vial, and 10 μL was injected into the LC-MS/MS system. Plasma samples stored at −70°C were thawed at room temperature. Samples for LC-MS/MS analysis were pretreated in the same manner as standard plasma samples.
Plasma concentrations of seven ginsenosides were calculated from calibration curves by calculating the ratio of the peak area of the test substance to the peak area of the IS. The following pharmacokinetic parameters were measured using Phoenix WinNonlin 6.3 (Pharsight Co, CA, USA): time to reach maximum observed plasma drug concentration (Tmax), maximum observed plasma drug concentration (Cmax), area under the plasma drug concentration-time curve from 0 h to the final measured time (AUC(0–t)), area under the plasma drug concentration–time curve from 0 h to infinity (AUC(0–∞)), and terminal elimination half-life (t1/2).

[2] = Stability of the ginsenosides in human plasma (QC samples, LC-MS/MS method validation); format: in vitro ADME
Method: The LC-MS/MS method was validated to determine selectivity, lower limits of quantification (LLOQ), accuracy, precision, recovery, matrix effect, and stability, according to the guideline for validating the bioanalytical method. The selectivity of the method was evaluated by comparison of blank plasma from six different men to the corresponding spiked plasma sample at the level of LLOQ to investigate the potential interferences at the LC chromatographic conditions for ginsenoside analytes and IS. The signal-to-noise ratio (S/N) of the LLOQ sample was at least five times the response compared to the blank samples. Each calibration curve was constructed by plotting the peak area ratio (y) of the analyte to IS against the spiked concentrations (x) of each analyte. Linearity was assessed by weighted (1/x^2) least squares regression analysis. The LLOQ was defined as the lowest concentration on the calibration curve with an S/N ratio of 10, where the precision and accuracy bias were within ±20% by five replicate analyses. The intra- and interday precision and accuracy assessments were performed at four concentrations with five replicates on the same day and three consecutive days, respectively. The acceptance criterion recommended by the guideline of precision and the accuracy was ±15% of the nominal concentration. The recovery of the seven ginsenosides was determined at three QC levels with three replicates by comparing the peak areas of plasma extracts spiked with analytes before extraction with those of the postextraction spiked samples at the same concentration. The matrix effects were investigated by comparing the peak areas of the analytes dissolved in the pretreated blank plasma with the corresponding concentrations prepared in the reconstitution solution with three replicates. The stability of the analytes in human plasma was assessed by analyzing five replicates of plasma samples at low, medium, and high QC levels under four different conditions. Short-term stability was evaluated after the exposure of QC samples to room temperature for 19 h before processing and analysis. The freeze and thaw stability was tested after three repeated cycles of thawing at room temperature and freezing at approximately −70°C. The long-term stability was assessed after storage at approximately −70°C for 50 days. The post-preparative stability was examined after the exposure of processed samples at ambient temperature (stored in an HPLC autosampler) for 34 h.

[3] = design: method as in earlier work; conditions: after oral Korean Red ginseng extract, ref 25 (Kim et al.); cited from earlier work

CC(C)=CCCC(C)(OC1OC(CO)C(O)C(O)C1O)C1CCC2(C)C1C(O)CC1C3(C)CCC(O)C(C)(C)C3CCC12C (centres unmarked) [CK, compound K]
detection in plasma at the initial time point (0 h) of the second treatment period ([1]; in vivo): did not detect
AUC(0–t) of CK, times higher than that of F2 ([1]; male, human, in vivo): > 5.03 times
mean Tmax in the RG group relative to the BRG group (times lower) ([1]; male, human, in vivo): approximately 1.71 times
AUC(0–t) in the BRG group, times higher than in the RG group ([1]; male, human, in vivo, po): > 28.0 times
AUC(0–∞) ([1]; male, human, in vivo, po): 3.72 ± 7.91 ng·h/mL
T 1/2 ([1]; male, human, in vivo, po): 1.36 ± 2.61 h
T max ([1]; male, human, in vivo, po): 4.77 ± 3.61 h
AUC(0-inf) ([1]; male, human, in vivo, po, AUC(0–∞)): 457 ± 259 ng·h/mL
half-life ([1]; male, human, in vivo, po, T 1/2): 7.72 ± 4.66 h
Tmax ([1]; male, human, in vivo, po, T max): 8.15 ± 10.2 h
Freeze-thaw stability, concentration found ([2]; human, 1.5 ng/mL): 104.03 ± 7.57%
Freeze-thaw stability, concentration found ([2]; human, 80 ng/mL): 96.17 ± 2.51%
Short-term stability, concentration found ([2]; human, 19 h, 1.5 ng/mL): 99.90 ± 4.38%
Short-term stability, concentration found ([2]; human, 19 h, 80 ng/mL): 98.69 ± 2.03%
Autosampler stability, concentration found ([2]; human, 34 h, 1.5 ng/mL): 101.24 ± 4.59%
Autosampler stability, concentration found ([2]; human, 34 h, 80 ng/mL): 99.56 ± 1.44%
Long-term stability, concentration found ([2]; human, 50 days, 1.5 ng/mL): 103.25 ± 4.03%
Long-term stability, concentration found ([2]; human, 50 days, 80 ng/mL): 103.02 ± 5.53%
Cmax [3]: 8.35 ± 1.97 ng/mL
half-life of CK compared with that of Rb1 [3]: seven times shorter

CC(C)=CCC[C@](C)(O[C@@H]1O[C@H](CO[C@@H]2O[C@H](CO)[C@@H](O)[C@H](O)[C@H]2O)[C@@H](O)[C@H](O)[C@H]1O)[C@H]1CC[C@]2(C)[C@@H]1[C@H](O)C[C@@H]1[C@@]3(C)CC[C@H](O[C@@H]4O[C@H](CO)[C@@H](O)[C@H](O)[C@H]4O[C@@H]4O[C@H](CO)[C@@H](O)[C@H](O)[C@H]4O)C(C)(C)[C@@H]3CC[C@]12C [Rb1, ginsenoside Rb1]
detection in plasma at the initial time point (0 h) of the second treatment period ([1]; after 1 week washout): did not detect
Cmax ([1]; male, human, in vivo, po, C max): 4.04 ± 1.71 ng/mL
half-life ([1]; male, human, plasma, oral, 5 g, range over RG and BRG groups, read-out: t1/2): 38 to 46 h
AUC(0-t) ([1]; male, human, plasma, po, 5 g, plasma, after single oral 5 g BRG, n = 13, mean ± SD): 56.9 ± 19.6 ng·h/mL
AUC(0-inf) ([1]; male, human, plasma, po, 5 g, plasma, after single oral 5 g BRG, n = 13, mean ± SD, read-out: AUC(0–∞)): 182 ± 94.4 ng·h/mL
Cmax ([1]; male, human, plasma, po, 5 g, plasma, after single oral 5 g BRG, n = 13, mean ± SD, read-out: C max): 3.19 ± 1.13 ng/mL
half-life ([1]; male, human, plasma, po, 5 g, plasma, after single oral 5 g BRG, n = 13, mean ± SD, read-out: T 1/2 (converted)): 38.1 ± 13.5 h
Tmax ([1]; male, human, plasma, po, 5 g, plasma, after single oral 5 g BRG, n = 13, mean ± SD, read-out: T max): 6.92 ± 1.55 h
AUC(0-t) ([1]; male, human, plasma, po, 5 g, plasma, after single oral 5 g RG, n = 13, mean ± SD): 73.2 ± 29.8 ng·h/mL
AUC(0-inf) ([1]; male, human, plasma, po, 5 g, plasma, after single oral 5 g RG, n = 13, mean ± SD, read-out: AUC(0–∞)): 257 ± 115 ng·h/mL
half-life ([1]; male, human, plasma, po, 5 g, plasma, after single oral 5 g RG, n = 13, mean ± SD, read-out: T 1/2 (converted)): 45.9 ± 21.9 h
Tmax ([1]; male, human, plasma, po, 5 g, plasma, after single oral 5 g RG, n = 13, mean ± SD, read-out: T max): 7.23 ± 1.92 h
Freeze-thaw stability, concentration found ([2]; human plasma, 3 cycles, 1.5 ng/mL): 98.65 ± 0.66%
Freeze-thaw stability, concentration found ([2]; human plasma, 3 cycles, 80 ng/mL): 100.70 ± 2.36%
Short-term stability, concentration found ([2]; human plasma, 19 h at room temperature, 1.5 ng/mL): 98.19 ± 1.40%
Short-term stability, concentration found ([2]; human plasma, 19 h at room temperature, 80 ng/mL): 96.93 ± 5.41%
Long-term stability, concentration found ([2]; human plasma, 50 days at -70℃, 1.5 ng/mL): 102.01 ± 1.78%
Long-term stability, concentration found ([2]; human plasma, 50 days at -70℃, 80 ng/mL): 105.06 ± 2.73%
Autosampler stability, concentration found ([2]; processed plasma samples, 34 h at ambient temperature, 1.5 ng/mL): 97.98 ± 3.55%
Autosampler stability, concentration found ([2]; processed plasma samples, 34 h at ambient temperature, 80 ng/mL): 100.35 ± 5.32%
Cmax [3]: 3.94 ± 1.97 ng/mL
